# Laboratory results as given in ChEMBL document CHEMBL4609983, “Pan-specific and partially selective dye-labeled peptidic inhibitors of the polycomb paralog proteins” (Bioorg Med Chem, 2020).
# Non-standard residues stand in square brackets, D forms with d. Residues, ends and D or L forms follow the SMILES beside them. *: point of attachment. X1 = O=C(O)c1cc(NC(=S)*)ccc1-c1c2ccc(=O)cc-2oc2cc(O)ccc12; Lys(Me3) = C[N+](C)(C)CCCC[C@H](N)C(=O)O; Benzoyl(4-Br) = O=C(c1ccc(Br)cc1)*; Gly(cPent) = N[C@H](C(=O)O)C1CCCC1; Abu = CC[C@H](N)C(=O)O; βAla = NCCC(=O)O
# What was measured:
# [1] = molecular target: T1, Chromobox protein homolog 7 (Homo sapiens, UniProt O95931); test: Inhibition of CBX7 (unknown origin) assessed as […] by competitive FP assay
# T1 sequence (O95931 whole entry): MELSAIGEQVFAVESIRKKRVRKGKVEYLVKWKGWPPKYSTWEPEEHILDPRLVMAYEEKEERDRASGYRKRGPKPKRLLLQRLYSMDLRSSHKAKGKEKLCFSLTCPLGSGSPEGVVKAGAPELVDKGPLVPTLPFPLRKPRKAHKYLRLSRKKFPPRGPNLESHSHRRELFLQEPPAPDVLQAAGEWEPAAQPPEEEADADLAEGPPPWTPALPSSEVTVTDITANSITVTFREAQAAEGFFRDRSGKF
# TOV21G = test: Decrease in cell viability in human TOV21G cells by MTT assay; type: cell-based
# [2] = molecular target: T2, Chromobox protein homolog 8 (Homo sapiens, UniProt Q9HC52); test: Inhibition of CBX8 (unknown origin) assessed as […] by competitive FP assay
# T2 sequence (Q9HC52 whole entry): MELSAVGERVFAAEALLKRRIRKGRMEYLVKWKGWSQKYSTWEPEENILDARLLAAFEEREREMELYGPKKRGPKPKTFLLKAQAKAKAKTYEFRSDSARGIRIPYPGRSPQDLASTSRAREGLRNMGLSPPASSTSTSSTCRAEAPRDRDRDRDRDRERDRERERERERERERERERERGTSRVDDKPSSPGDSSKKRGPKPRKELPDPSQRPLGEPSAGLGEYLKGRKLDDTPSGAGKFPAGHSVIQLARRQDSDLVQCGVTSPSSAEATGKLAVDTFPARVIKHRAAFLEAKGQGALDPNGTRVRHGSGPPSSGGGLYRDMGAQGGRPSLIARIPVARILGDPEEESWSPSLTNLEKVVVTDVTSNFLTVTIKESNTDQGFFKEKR
# [3] = molecular target: T3, Chromobox protein homolog 6 (Homo sapiens, UniProt O95503); test: Inhibition of CBX6 (unknown origin) assessed as […] by competitive FP assay
# T3 sequence (O95503 whole entry): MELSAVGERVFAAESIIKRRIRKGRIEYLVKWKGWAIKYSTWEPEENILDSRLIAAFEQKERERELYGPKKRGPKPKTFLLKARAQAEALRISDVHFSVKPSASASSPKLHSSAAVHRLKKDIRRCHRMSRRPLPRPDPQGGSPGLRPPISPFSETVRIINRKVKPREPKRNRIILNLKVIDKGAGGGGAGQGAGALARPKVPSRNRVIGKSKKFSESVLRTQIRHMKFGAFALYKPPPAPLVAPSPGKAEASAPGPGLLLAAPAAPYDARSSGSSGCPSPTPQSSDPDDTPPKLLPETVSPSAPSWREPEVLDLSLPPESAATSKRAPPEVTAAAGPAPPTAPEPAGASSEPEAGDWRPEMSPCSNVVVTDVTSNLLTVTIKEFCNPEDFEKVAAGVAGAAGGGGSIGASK
# Homo sapiens [4] = organism: Homo sapiens; test: Selectivity ratio of Kd for CBX4 (unknown origin) to Kd for CBX8 (unknown origin)
# [5] = molecular target: T3, Chromobox protein homolog 6; test: Binding affinity to CBX6 (unknown origin) assessed as dissociation constant by fluorescence polarization analysis
# Homo sapiens [6] = organism: Homo sapiens; test: Selectivity ratio of Kd for CBX2 (unknown origin) to Kd for CBX8 (unknown origin)
# [7] = molecular target: T2, Chromobox protein homolog 8; test: Binding affinity to CBX8 (unknown origin) assessed as dissociation constant by fluorescence polarization analysis
# Homo sapiens [8] = organism: Homo sapiens; test: Selectivity ratio of Kd for CBX1 (unknown origin) to Kd for CBX8 (unknown origin)
# [9] = molecular target: T4, Chromobox protein homolog 2 (Homo sapiens, UniProt Q14781); test: Binding affinity to CBX2 (unknown origin) assessed as dissociation constant by fluorescence polarization analysis
# T4 sequence (Q14781 whole entry): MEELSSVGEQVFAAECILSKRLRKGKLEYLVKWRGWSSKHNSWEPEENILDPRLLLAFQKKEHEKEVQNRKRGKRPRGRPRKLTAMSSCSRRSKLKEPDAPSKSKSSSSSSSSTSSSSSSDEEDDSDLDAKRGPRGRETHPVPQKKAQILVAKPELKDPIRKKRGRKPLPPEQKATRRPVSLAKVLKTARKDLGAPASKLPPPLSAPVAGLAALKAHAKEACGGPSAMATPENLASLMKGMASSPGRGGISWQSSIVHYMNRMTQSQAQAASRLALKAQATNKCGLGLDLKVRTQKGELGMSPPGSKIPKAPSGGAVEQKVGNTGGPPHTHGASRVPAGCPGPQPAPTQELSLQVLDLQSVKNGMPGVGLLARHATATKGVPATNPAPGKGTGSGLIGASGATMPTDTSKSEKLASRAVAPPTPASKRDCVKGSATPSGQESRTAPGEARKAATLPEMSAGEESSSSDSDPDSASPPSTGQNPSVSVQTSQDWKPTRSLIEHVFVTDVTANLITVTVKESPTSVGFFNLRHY
# [10] = molecular target: T5, E3 SUMO-protein ligase CBX4 (Homo sapiens, UniProt O00257); test: Binding affinity to CBX4 (unknown origin) assessed as dissociation constant by fluorescence polarization analysis
# T5 sequence (O00257 whole entry): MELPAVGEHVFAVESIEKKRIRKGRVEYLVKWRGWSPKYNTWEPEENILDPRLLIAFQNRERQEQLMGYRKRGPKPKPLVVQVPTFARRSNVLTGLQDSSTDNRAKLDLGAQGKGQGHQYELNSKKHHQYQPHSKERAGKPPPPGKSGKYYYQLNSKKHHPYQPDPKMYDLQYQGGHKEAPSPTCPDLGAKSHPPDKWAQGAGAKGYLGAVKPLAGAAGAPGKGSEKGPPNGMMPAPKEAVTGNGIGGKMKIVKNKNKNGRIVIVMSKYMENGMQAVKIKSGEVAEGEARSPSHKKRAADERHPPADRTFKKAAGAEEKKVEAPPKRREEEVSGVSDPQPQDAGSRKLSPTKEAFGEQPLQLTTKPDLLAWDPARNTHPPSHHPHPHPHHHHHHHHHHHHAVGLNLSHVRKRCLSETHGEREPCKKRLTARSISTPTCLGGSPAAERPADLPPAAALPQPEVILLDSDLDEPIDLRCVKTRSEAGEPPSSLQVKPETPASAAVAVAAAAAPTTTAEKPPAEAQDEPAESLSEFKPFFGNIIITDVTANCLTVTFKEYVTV
# Homo sapiens [11] = organism: Homo sapiens; test: Selectivity ratio of Kd for CBX7 (unknown origin) to Kd for CBX8 (unknown origin)
# Homo sapiens [12] = organism: Homo sapiens; test: Selectivity ratio of Kd for CBX6 (unknown origin) to Kd for CBX8 (unknown origin)
# [13] = molecular target: Chromobox protein homolog 1 (Homo sapiens, UniProt P83916); test: Binding affinity to CBX1 (unknown origin) assessed as dissociation constant by fluorescence polarization analysis
# Chromobox protein homolog 1, sequence (P83916 whole entry): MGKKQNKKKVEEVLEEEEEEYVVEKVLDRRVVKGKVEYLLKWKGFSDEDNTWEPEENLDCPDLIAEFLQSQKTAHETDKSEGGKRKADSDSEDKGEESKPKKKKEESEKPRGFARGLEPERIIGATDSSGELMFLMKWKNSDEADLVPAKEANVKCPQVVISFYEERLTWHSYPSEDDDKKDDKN
# [14] = molecular target: T1, Chromobox protein homolog 7; test: Binding affinity to CBX7 (unknown origin) assessed as dissociation constant by fluorescence polarization analysis
# Homo sapiens [15] = organism: Homo sapiens; test: Selectivity ratio of IC50 for CBX8 (unknown origin) to IC50 for CBX7 (unknown origin)
# Homo sapiens [16] = organism: Homo sapiens; test: Selectivity ratio of IC50 for CBX6 (unknown origin) to IC50 for CBX7 (unknown origin)
# [17] = Drug uptake in nucleus of human TOV21G cells by live cell imaging analysis; type: ADME, cell-based
# [18] = Drug uptake in human PC3 cells assessed as endosomal entrapment by measuring characteristic punctate dots in the cytoplasm at 10 uM by cell imaging analysis; type: ADME, cell-based; conditions: pc-3, 10 µM
# [19] = Drug uptake in cytoplasm of human TOV21G cells by live cell imaging analysis; type: ADME, cell-based
# [20] = Drug uptake in nucleus of human PC3 cells by live cell imaging analysis; type: ADME, cell-based; conditions: pc-3
# [21] = Drug uptake in human TOV21G cells assessed as endosomal entrapment by measuring characteristic punctate dots in the cytoplasm at 10 uM by cell imaging analysis; type: ADME, cell-based
# [22] = Drug uptake in cytoplasm of human PC3 cells by live cell imaging analysis; type: ADME, cell-based; conditions: pc-3
Structure (SMILES),IC50 [1],Activity (TOV21G),IC50 [2],IC50 [3],Kd [5],Kd [7],Kd [9],Kd [10],Kd [13],Kd [14],further results
C[C@H](NC(=O)[C@H](Cc1ccccc1)NC(=O)c1ccc(Br)cc1)C(=O)N[C@@H](Cc1ccc(O)cc1)C(=O)N[C@@H](CCCC[N+](C)(C)C)C(=O)N[C@@H](CO)C(=O)N[C@@H](CCC(=O)O)C(N)=O ({Benzoyl(4-Br)}-FAY[Lys(Me3)]SE-NH2),2000 nM,Non-Toxic,12000 nM,6000 nM,–,–,–,–,–,–,–
CC[C@H](NC(=O)[C@H](Cc1ccccc1)NC(=O)c1ccc(Br)cc1)C(=O)N[C@H](C(=O)N[C@@H](CCCC[N+](C)(C)C)C(=O)N[C@@H](CO)C(=O)N[C@@H](CCC(=O)O)C(=O)N[C@@H](CCCCNC(=S)Nc1ccc(-c2c3ccc(=O)cc-3oc3cc(O)ccc23)c(C(=O)O)c1)C(N)=O)C1CCCC1 ({Benzoyl(4-Br)}-F[Abu][Gly(cPent)][Lys(Me3)]SEK(X1)-NH2),–,–,–,–,350 nM,120 nM,390 nM,600 nM,3200 nM,160 nM,Selectivity ratio (Homo sapiens [4]): 5; Selectivity ratio (Homo sapiens [6]): 3; Selectivity ratio (Homo sapiens [8]): 26; Selectivity ratio (Homo sapiens [11]): 2; Selectivity ratio (Homo sapiens [12]): 3
CC[C@H](NC(=O)[C@H](Cc1ccccc1)NC(=O)c1ccc(Br)cc1)C(=O)N[C@@H](Cc1ccccc1)C(=O)N[C@@H](CCCC[N+](C)(C)C)C(=O)N[C@@H](CO)C(=O)N[C@@H](CCC(=O)O)C(=O)N[C@@H](CCCCNC(=S)Nc1ccc(-c2c3ccc(=O)cc-3oc3cc(O)ccc23)c(C(=O)O)c1)C(N)=O ({Benzoyl(4-Br)}-F[Abu]F[Lys(Me3)]SEK(X1)-NH2),–,–,–,–,800 nM,960 nM,1500 nM,700 nM,180000 nM,300 nM,–
CC(C)C[C@H](NC(=O)[C@H](C)NC(=O)[C@H](Cc1ccccc1)NC(=O)CCNC(=S)Nc1ccc(-c2c3ccc(=O)cc-3oc3cc(O)ccc23)c(C(=O)O)c1)C(=O)N[C@@H](CCCC[N+](C)(C)C)C(=O)N[C@@H](CO)C(N)=O ({X1-βAla}-FAL[Lys(Me3)]S-NH2),–,–,–,–,900 nM,4500 nM,1100 nM,800 nM,2500 nM,700 nM,–
CC(C)C[C@H](NC(=O)[C@H](CO)NC(=O)[C@H](CCCC[N+](C)(C)C)NC(=O)[C@H](Cc1ccc(O)cc1)NC(=O)[C@H](C)NC(=O)[C@H](Cc1ccccc1)NC(=O)c1ccc(Br)cc1)C(N)=O ({Benzoyl(4-Br)}-FAY[Lys(Me3)]SL-NH2),1100 nM,Non-Toxic,19000 nM,13000 nM,–,–,–,–,–,–,–
CC(=O)N[C@@H](Cc1ccccc1)C(=O)N[C@@H](Cc1ccccc1)C(=O)N[C@@H](C)C(=O)N[C@@H](CC(C)C)C(=O)N[C@@H](CCCC[N+](C)(C)C)C(=O)N[C@@H](CO)C(=O)N[C@@H](CCC(=O)O)C(=O)N[C@@H](CCCCNC(=S)Nc1ccc(-c2c3ccc(=O)cc-3oc3cc(O)ccc23)c(C(=O)O)c1)C(N)=O (Ac-FFAL[Lys(Me3)]SEK(X1)-NH2),–,–,–,–,1000 nM,2600 nM,18000 nM,15000 nM,110000 nM,1500 nM,–
CC(C)C[C@H](NC(=O)[C@H](CO)NC(=O)[C@H](CCCC[N+](C)(C)C)NC(=O)[C@H](Cc1ccc(O)cc1)NC(=O)[C@H](C)NC(=O)[C@H](Cc1ccccc1)NC(=O)c1ccc(Br)cc1)C(=O)N[C@@H](CCCCNC(=S)Nc1ccc(-c2c3ccc(=O)cc-3oc3cc(O)ccc23)c(C(=O)O)c1)C(N)=O ({Benzoyl(4-Br)}-FAY[Lys(Me3)]SLK(X1)-NH2),–,–,–,–,78 nM,890 nM,–,–,1750 nM,11 nM,–
C[C@H](NC(=O)[C@H](Cc1ccccc1)NC(=O)c1ccc(Br)cc1)C(=O)N[C@@H](Cc1ccc(O)cc1)C(=O)N[C@@H](CCCC[N+](C)(C)C)C(=O)N[C@@H](CO)C(N)=O ({Benzoyl(4-Br)}-FAY[Lys(Me3)]S-NH2),2300 nM,–,42000 nM,16000 nM,–,–,–,–,–,–,Ratio IC50 (Homo sapiens [15]): 18; Ratio IC50 (Homo sapiens [16]): 7
C[C@H](NC(=O)[C@H](Cc1ccccc1)NC(=O)c1ccc(Br)cc1)C(=O)N[C@@H](Cc1ccc(O)cc1)C(=O)N[C@@H](CCCC[N+](C)(C)C)C(=O)N[C@@H](CO)C(=O)N[C@@H](CCC(=O)O)C(=O)N[C@@H](CCCCNC(=S)Nc1ccc(-c2c3ccc(=O)cc-3oc3cc(O)ccc23)c(C(=O)O)c1)C(N)=O ({Benzoyl(4-Br)}-FAY[Lys(Me3)]SEK(X1)-NH2),–,Toxic,–,–,47 nM,624 nM,–,–,4750 nM,12 nM,Drug uptake [17]: Not Active; Drug uptake [18]: Active; Drug uptake [19]: Not Active; Drug uptake [20]: Not Active; Drug uptake [21]: Active; Drug uptake [22]: Not Active
